Experimental data as given in patent publication US5709816A, “Singlet oxygen quenchers and external compositions containing the same” (Kao Corporation, priority 1899, dated 1998).

How the values were obtained:
[1] = Quenching rate constant of singlet oxygen (Rose Bengal photosensitization, Stern-Volmer method); type: biochemical; details: for weakening of the 1,270 nm singlet oxygen emission peak with increasing quencher concentration: 50 μM ethanol solution of Rose Bengal, 490-590 nm irradiation
Description: Method for measuring the quenching rate constant of singlet oxygen:
The apparatus used for measuring singlet oxygen included the following parts.
(1) Light source: Xenon lamp (150 W) (Atago Bussan K.K.)
(2) Filters on the excitation side: Water filter (optical path: 50 mm), Color glass filters (HA-15, HA-30, G-533, manufactured by Hoya K.K.)
(3) Sample: Square quartz cell (2×10×50 mm)
(4) Filters on the detection side: Color glass filter (IR-85, manufactured by Hoya K.K.), Interference filter (Nippon Shinku-Kogaku K.K.)
(5) Spectrometer and detector: Spectrometer (HR-320, Jovin Yvon Co.), Germanium (Ge) detector (EO-817L, a type using liquid nitrogen as a coolant, North coast Scientic Corporation)
(6) Amplifier: Light chopper (5584, NF Co.), Frequency filter (E-3201B, NF Co.), Super low noise amplifier (SA-200F3, NF Co.), Digital storage oscilloscope (2431L, SONY Tektronix Co.)
(7) Recording section: Personal computer (PC-9801 BA, NEC Corporation), GP-IB interface
(8) Oxygen concentration control unit: High-pressure oxygen cylinder
Using this apparatus, light was irradiated onto a system which is known to produce singlet oxygen through photochemical sensitization. The wavelength of the light was within an appropriate absorption range of the photosensitizer employed. weak emission in the near infrared region, which is specific to singlet oxygen, was measured for its intensity I. Subsequently, the emission obtained when a test substance was added to the same system was measured. From the decrease in emission intensity I, the quenching rate constant of singlet oxygen of the test substance could be measured in accordance with the Stern-Volmer method. However, since some substances react with the photochemical sensitization system to cause errors in the measurements, the method described by R. H. Young et al., Photochem. Photobiol., vol. 17, p. 233 (1973) was applied to correct this contribution quenching.
A 50 μM ethanol solution of Rose Bengal in a 400 μl square quartz cell was used as a test substance.
First, the light within 490-590 nm, which is appropriate for the maximum absorption wavelength of Rose Bengal, was irradiated onto the cell containing the test substance.
Similarly, another system was subjected to measurement in which a typical singlet oxygen quencher, β-carotene, sodium azide,or 1,4-diazabicyclo[2.2.2]octane, had been added.
Measurement of the quenching rate constant of singlet oxygen: An ethanol solution of each of compounds obtained in the above-described Synthesis Examples and N-phenyldiethanolamine (compound (36)), with Rose Bengal, as a conventional photosensitizer, was used for the measurement of the quenching rate constants of singlet oxygen.
First, emission intensity I of a mixture solution containing 50 μM of Rose Bengal and the above compounds were measured under saturated air conditions. The ratio IOair /Iair was calculated, wherein Iair represents the emission intensity measured for a solution with a test substance at a concentration of Cq (Iair), and Oair represents the emission intensity measured for a solution without test substance. Next, under saturated oxygen conditions, emission intensity was measured for a solution with a test substance at the same concentration Cq (I302). Using these emission intensities, the correction term Fair was obtained in accordance with the following equation.
Interference attributed to the test substance with respect to the photosensitization reaction system was corrected by multiplying IOair /Iair by Fair.
Using the following equation:
(IOair /Iair)'=1+kq ·.tau.·Cq

[2] = system: skin of colored guinea pigs; assay: Inhibition of delayed darkening (UV-A/UV-B irradiation); type: in vivo; details: 7 wt. % in ethanol; UV-A/UV-B 50 J/cm^2; 14 days after irradiation; color difference meter
Protocol: Inhibition of delayed darkening
The hair of colored guinea pigs (8 week old, female) hair was removed, and an ethanol solution containing a test substance (7 wt. %) was applied to the skin. A mixture of UV- A/UV-B rays (50 J/cm^2, measured at 365 nm using a UV-radiometer UVR-305/365-D, Torex Co.) was irradiated onto the back of each guinea pig using a solar simulator. Fourteen days after irradiation, delayed darkening inhibition ratios were measured using a color difference meter (Model 1001P. Nippon Kogyo Co., Ltd.).

[3] = system: sunburn cells in skin of ICR/HR mice; assay: Inhibition of sunburn cell formation (UV-B irradiation); type: in vivo; details: 1 wt. % in ethanol, UV-B 100 mJ/cm^2, 24 hours later; for inhibition in vivo at 1 %: Mus musculus, light or radiation study, topical, read-out: Inhibition ratio regarding sunburn cell formation
Description: Inhibition of sunburn cell formation
Ethanol solution of a test substance (1 wt. %) was applied onto the skin of ICR/HR mice. UV-B (100 mJ/cm^2) was irradiated onto the skin (health lamp SE20/SLE, Toshiba). Twenty-four hours later, the skin was biopsied and stained using hematoxylin & eosin, after which the number of sunburn cells were counted under microscope.

[4] = system: skin of white guinea pigs; assay: Inhibition of erythema formation (UV-A/UV-B irradiation); type: in vivo; details: Cavia porcellus, light or radiation study, topical; 5 wt. % in ethanol; UV-A/UV-B 40 J/cm^2; determined after 1 day and 2 days; read-out: Erythema inhibition rate
Description: Inhibition of erythema formation
The hair of white guinea pigs (8 weeks old, female) hair was removed by shaving, and an ethanol solution containing a test substance (5 wt. %) was applied to the shaved part of each animal. A mixture of UV-A/UV-B (40 J/cm^2, measured at 365 nm using a UV-radiometer UVR-305/365-D, Torex Co.) was irradiated onto the back of each guinea pig using a solar simulator Model 1600 (Solar Light Co.). After 1 day and 2 days of irradiation, the erythema formation was visually determined by the standards of the Japanese Dermatological Association to obtain erythema inhibition ratios.

[5] = system: collagen; assay: Inhibition of protein denaturation (collagen crosslinking, porphyrin + UV); type: biochemical; details: 0.1 wt. % in ethanol; collagen 0.5 mg/ml, porphyrin 100 mM; UV-A/UV-B 3 J/cm^2; SDS-PAGE
Protocol: Inhibition of protein denaturation
An ethanol solution containing a test substance (0.1 wt. %) was added to a mixture of collagen (0.5 mg/ml) and 2 porphyrin (100 mM). A mixture of UV-A/UV-B (3 J/cm^2, measured at 365 nm) was irradiated onto the resultant mixture using a solar simulator. The irradiated mixture was applied to SDS-PAGE electrophoresis, and collagen crosslinking inhibition ratios were measured.

[6] = system: dopachrome formation from dopa; assay: Inhibition of immediate pigment darkening (dopachrome formation from dopa, porphyrin + UV); type: biochemical; details: 0.5 wt. % in ethanol; dopa 1 mM, porphyrin 5 mM; UV-A/UV-B 3 J/cm^2; absorption at 475 nm
Protocol: Inhibition of immediate pigment darkening
An ethanol solution containing a test substance (0.5 wt. %) was added to a mixture of dopa (1 mM) and porphyrin (5 mM). A mixture of UV-A/UV-B (3 J/cm^2, measured at 365 nm) was irradiated onto the resultant mixture using a solar simulator. The amount of dopachrome formed by irradiation was determined by measuring absorption at 475 nm.

[7] = system: cultured human fibroblasts; assay: Inhibition of lipid peroxide formation in cultured human fibroblasts (TBA method); type: cell-based; details: 0.01 wt. % in ethanol, 100 mM porphyrin; for inhibition at 0.01 wt%: Homo sapiens, Fibroblast, light or radiation study, UV-A/UV-B 1 J/cm^2, read-out: Inhibition ratio regarding lipid peroxide formation
Protocol: Inhibition of lipid peroxide formation
Cultured human fibroblasts were combined with 100 mM porphyrin and a test substance (0.01 wt. %, in ethanol). A mixture of UV-A/UV-B rays (1 J/cm^2, measurements performed at 365 nm) was irradiated onto the resultant cell culture using a solar simulator. The fibroblasts were collected after the trypsin treatment, then extracted hydrophobic substances using acetone. The extracted substances were dried under nitrogen to prepare cellular lipid samples. A TBA method was used to measure lipid peroxides in cells and inhibition ratio by a test substance.

[8] = system: E. coli vector pUC119 DNA; type: biochemical; details: 0.01 wt. % in ethanol; 100 mM porphyrin; UV-A/UV-B 3 J/cm^2; agarose gel electrophoresis
Protocol: To a mixture of […] E. coli vector pUC119 DNA and 100 mM porphyrin, an ethanol solution containing a test substance (0.01 wt. %) was added. A mixture of UV-A/UV-B (3 J/cm^2, measured at 365 nm) was irradiated onto the resultant DNA mixture using a solar simulator. A 2.5-fold amount of ethanol and a 0.1-fold amount of 5M sodium acetate were added and the DNA was precipitated. The DNA pellet was dissolved in a TE buffer, and analyzed through agarose gel electrophoresis. Inhibition of DNA single strand breaks formation was measured.

[9] = system: skin of ICR/HR mice; assay: Inhibition of wrinkle formation in the skin of mice (UV-B, 16 weeks); type: in vivo, ICR/HR mouse; details: 1 wt. % in ethanol, 1 MED UV-B five times per week over sixteen weeks; for inhibition in vivo at 1 %: Mus musculus, topical, 2688 h
Description: Inhibition of wrinkle formation in the skin of mice
To the back of each ICR/HR mouse (female, 6 weeks old), an ethanol solution containing a test substance (1 wt. %) was applied. One (1) MED of UV-B was irradiated thereto using a health lamp SL20-SLE (Toshiba). Irradiation was repeated five times per week over sixteen weeks. Wrinkle formation was visually scored using the following five rankings.
1: Mild and questionable wrinkles are observed
2: Mild but clear and definite wrinkles are observed
3: Moderate wrinkles are observed
4: Severe wrinkles are observed
Using the above rankings, wrinkle formations were scored and the inhibition ratios were determined by the division by the blank score.

[10] = system: skin of hairless mice; assay: Inhibition of wrinkle formation in hairless mice (visual wrinkle index); type: in vivo, hairless mouse (HR/ICR); details: 5 wt. % in ethanol, 80 μl; UV-B five times per week, sixteen weeks; scale 1 (no wrinkles) to 4; control (ethanol) 3.78 ± 0.08
Protocol: (1) Inhibition of wrinkle formation in hairless mice.
(§1) To each hairless mouse (HR/ICR, 6 weeks old when the test started), a test substance (5 wt. %, in ethanol) was applied. (80 μl). Approximately 10 minutes later, UV-B was irradiated thereto using 6 bulbs of health lamps (SL20-SLE, Toshiba) so that the dose per irradiation was not greater than 1 MED. Irradiation was repeated five times per week over sixteen weeks. While the irradiation energy was measured using a UV-radiometer (UVR-305/S65D, Tokyo Optical K.K.) so that the dose per irradiation was not greater than 1 MED, energy was irradiated at an intensity of 0.28 mW/cm^2, with the total dose. 100 mJ/cm^2. As a control, a case where only ethanol was applied was similarly tested in a manner performed on the test substances.
After completion of the testing, the level of wrinkle formation was visually determined using the following standards (wrinkle indices).
1: No wrinkles are formed
2: Small amounts of wrinkles are formed
3: Moderate amounts of wrinkles are formed
4: Considerable amounts of wrinkles are formed

[11] = system: skin of hairless mice; assay: Analysis of wrinkles in hairless mice (image analysis of skin replicas); type: in vivo, hairless mouse (HR/ICR); details: 5 wt. % in ethanol, 80 μl; UV-B sixteen weeks; shadow area of skin replicas, 30°; control (ethanol) 6.46 ± 0.68
Protocol: as §1
In order to analyze the wrinkles formed in the above step (1) in detail, replicas of different skin areas (3 replicas per mouse) each having a round shape with a diameter of 1 cm were obtained using a hydrophilic exaflex, hydrophilic vinyl silicone imaging agent. Each replica was placed horizontally and lightened from an angle of 30°. The area of shadows formed by wrinkles was analyzed as the area ratio using an image analyzing apparatus.

Compound	weakening of the 1,270 nm singlet oxygen emission peak with increasing quencher concentration [1]	ΔΔL value [2]	Protein denaturation inhibition ratio [5]	Inhibition ratio regarding immediate blackening [6]	Prevention of DNA damage [8]	inhibition at 0.01 wt% [7]	other results
C1CN2CCN1CC2 [1,4-diazabicyclo[2.2.2]octane, reference compound]	the peak at 1,270 nm weakened	–	–	–	–	–	–
COC(=O)C=Cc1ccc(OC)cc1 [Comparative compound (1), Methyl p-methoxycinnamate, reference compound]	–	0.9	–	–	–	–	inhibition in vivo at 1 % [3]: 37%; inhibition in vivo at 5 % [4]: 31%
[Cl][Cd][Cl] [Comparative compound (2), Cadmium chloride, reference compound]	–	–	–	–	–	–	Inhibition ratio regarding sunburn cell formation [3]: 67%
Oc1ccc(O)cc1 [Comparative compound (3), Hydroquinone, reference compound]	–	0.7	–	–	–	–	–
[N-]=[N+]=[N-].[Na+] [Comparative compound (4), Sodium azide, reference compound]	the peak at 1,270 nm weakened	–	45%	48%	53%	–	Inhibition ratio regarding lipid peroxide formation ([7]; UV-A/UV-B 1 J/cm^2): 37; Inhibition of wrinkle formation [9]: 28%
O=C1O[C@H]([C@@H](O)CO)C(O)=C1O [Comparative compound (5), Ascorbic acid, reference compound]	–	–	–	42%	21%	43%	inhibition in vivo at 1 % [9]: 11%
Cc1c(C)c2c(c(C)c1O)CCC(C)(CCCC(C)CCCC(C)CCCC(C)C)O2 (stereo not drawn) [Comparative compound (6), α-Tocopherol, reference compound]	–	–	30%	–	34%	42%	inhibition in vivo at 1 % [9]: 34%
CCCCN(Cc1ccco1)Cc1ccco1 [Compound (22), N,N-bisfurfurylbutylamine]	–	–	–	–	–	–	Wrinkle index [10]: 2.34 ± 0.16; Area ratio of image analysis [11]: 3.37 ± 0.30%
OCCN(CCO)c1ccccc1 [Compound (36), N-phenyldiethanolamine]	–	1.2	69%	64%	58%	46%	inhibition in vivo at 1 % [3]: 62%; inhibition in vivo at 5 % [4]: 48%; Extinction rate constant of singlet oxygen ([1]; kq, ethanol solution, 50 μM Rose Bengal, singlet oxygen lifetime taken as 10 μs): 5.8e+07 M⁻¹ s⁻¹
CC1=C(/C=C/C(C)=C/C=C/C(C)=C/C=C/C=C(C)/C=C/C=C(C)/C=C/C2=C(C)CCCC2(C)C)C(C)(C)CCC1 [β-carotene, reference compound]	the peak at 1,270 nm weakened	–	–	–	–	–	–
